Reference: patent US10987407B2, “Methods and compositions for treating hypoglycemic disorders” (priority 2007, dated 2021)
Entries after “also recorded” stand apart in the source; their conditions may differ. Like-named read-outs stand apart in the source and are kept apart here. Marks after values point to notes of the source that are not given here.

What was measured:
SUR-1−/− islets [1] = assay: Perifusion of isolated islets with amino acid ramp, insulin release; assay type: cell-based, mouse
Method: Islets were isolated by collagenase digestion and cultured for 3 days in RPMI 1640 medium containing 10 mM glucose. The culture medium was supplemented with 10% fetal bovine serum, 2 mM glutamine, 100 units/mL penicillin, and 50 μg/mL streptomycin. Islets were incubated at 37° C. in a 5% CO2, 95% air-humidified incubator. Batches of 100 cultured mouse islets were loaded onto a nylon filter in a chamber and perifused with Krebs-Ringer bicarbonate buffer (115 mM NaCl, 24 mM NaHCO3, 5 mM KCl, 1 mM MgCl2, 2.5 mM CaCl2), 10 mM HEPES, pH 7.4) with 0.25% bovine serum albumin at a flow rate of 2 mL/min. Perifusate solutions were gassed with 95% 02, 5% CO2 and maintained at 37° C. Islets were stimulated with a ramp of amino acids. […] Insulin was measured by radioimmunoassay (Linco Research Inc., St. Charles, Mo.).
Given the observed in vivo effects on insulin secretion but not insulin sensitivity, it was next determined whether exendin-(9-39) exerts a direct effect on SUR-1^−/− islet function. […]

[2] = system: SUR-1−/− and wild-type mice; assay: Insulin tolerance test (insulin sensitivity); assay type: in vivo, mouse; settings: any of the treatment groups; 0.5 units/kg insulin i.p.
Method: (§1) Alzet mini-osmotic pumps (model 2002; Alza, Palo Alto, Calif.) were implanted subcutaneously to deliver exendin-(9-39) (Bachem Bioscience, King of Prussia, Pa.) at a rate of 150 pmol/kg/min or vehicle (0.9% NaCl/1% BSA) for 2 weeks. For determination of fasting blood glucose levels mice were fasted for 12-16 hours. Oral glucose tolerance testing was carried after a 12-16 hour fast by administering 2 g/kg of dextrose by oral gavage (feeding needles; Popper and Sons, Inc., Hyde Park, N.Y.). For insulin tolerance testing mice received 0.5 units/kg of insulin intraperitoneally after a 4 hour fast. Blood glucose levels were measured using a hand-held glucose meter (FreeStyle; TheraSense, Alameda, Calif.). Insulin and glucagon were measured by ELISA (Mouse Endocrine Immunoassay Panel; Linco Research, Inc., St. Charles, Mo.). To determine the mechanism of action for the effect of exendin-(9-39) on fasting blood glucose levels insulin sensitivity was assessed by an insulin tolerance test.

SUR-1−/− islets [3] = assay: cAMP content in static incubations of isolated islets; assay type: cell-based, mouse
Method: Islets were isolated as above, hand-picked and cultured for three days. Cultured islets were preincubated in glucose free Krebs-Ringer bicarbonate buffer for 60 min, 100 nM exendin-(9-39) was added 30 min into the preincubation period. Then, islets were exposed to different treatments for an additional 30 min in the presence of 0.1 mM isobutyl-methylzanthine (IBMX). After incubation, islets were washed 2 times by cold glucose-free Hank's buffer. cAMP was measured in islet lysates by ELISA (GE/Amersham Biosciences, Piscataway, N.J.). The effect of exendin-(9-39) on cAMP was determined in static incubations of isolated islets.

SUR-1−/− mice [4] = assay: Oral glucose tolerance test in SUR-1−/− mice; assay type: in vivo, mouse
Method: as §1, with “Mo.).” for “Mo.). To determine the mechanism of action for the effect of exendin-(9-39) on fasting blood glucose levels insulin sensitivity was assessed by an insulin tolerance test.”

SUR-1−/− islets [5] = assay: Insulin secretion in static incubations of isolated islets; assay type: cell-based, mouse
[6] = system: subject with congenital hyperinsulinism due to a mutation in ABCC8; assay: Intravenous exendin-(9-39) infusion in fasting subjects with congenital hyperinsulinism; assay type: in vivo, human
Method: After an overnight fast, subject received an intravenous infusion of 0.9% NaCl for 60 min followed by a 6 hour intravenous infusion of exendin-(9-39) at ascending doses every 120 min (100 pmol/kg/min for 120 min, then 300 pmol/kg/min for 120 min and then 500 pmol/kg/min for 120 min). On the second day, 0.9% NaCl was infused intravenously after an overnight fast for a total of 7 hours.
Blood samples for glucose, insulin, C-peptide, glucagon and GLP-1 were obtained at different intervals during the infusions.

SUR-1−/− mice [7] = assay: Fasting blood glucose during continuous subcutaneous exendin-(9-39) infusion in SUR-1−/− mice; assay type: in vivo, mouse; settings: 150 pmol/kg/min s.c. pump, day 3, mean±SEM, vehicle 63.2±4.9
Text: (§2) SUR-1^−/− mice were kindly provided by Dr. Mark A. Magnuson. The generation and genotyping of SUR-1^−/− mice were previously described (8). Mice are maintained in a C57Bl/6 genetic background. Twelve to eighteen week SUR-1^−/− and wild-type littermatte control mice were used in all experiments. Mice were maintained on a 12:12-h light-dark cycle and were fed a standard rodent chow diet. All procedures were approved and carried out according to the University of Pennsylvania Institutional Animal Care and Use Committee guidelines. […]
(§3) For determination of fasting blood glucose levels mice were fasted for 12-16 hours. […] Blood glucose levels were measured using a hand-held glucose meter (FreeStyle; TheraSense, Alameda, Calif.). Insulin and glucagon were measured by ELISA (Mouse Endocrine Immunoassay Panel; Linco Research, Inc., St. Charles, Mo.).
(§4) Twelve-18 week old male SUR-1^−/− and wildtype littermates underwent a baseline evaluation including fasting blood glucose measurements and oral glucose tolerance testing, followed by randomization to treatment with exendin-(9-39) (150 pmol/kg/min) or vehicle (0.9% NaCl, 1% BSA). Fasting blood glucose levels were determined after an overnight fast on days 3 and 7 of the infusion. In addition, oral glucose tolerance and insulin sensitivity were evaluated during treatment. […]

[8] = system: wild-type littermate control mice; assay: Fasting blood glucose during continuous subcutaneous exendin-(9-39) infusion in wild-type littermates; assay type: in vivo, mouse; settings: 150 pmol/kg/min s.c. pump
Text: as §2, §3, §4

SUR-1−/− mice [9] = assay: Fasting hormonal profile (insulin, glucagon, insulin/glucose ratio) during treatment; assay type: in vivo, mouse
Method: as §1, with “Mo.).” for “Mo.). To determine the mechanism of action for the effect of exendin-(9-39) on fasting blood glucose levels insulin sensitivity was assessed by an insulin tolerance test.”

SUR-1−/− islets [10] = assay: Cytosolic free Ca2+ measurement (Fura-2) in islets; assay type: cell-based, mouse
Method: Mouse islets were isolated and cultured on poly-[…] coated glass coverslips under the same conditions as described above. The perifusion procedure and cytosolic-free Ca2+([Ca2+]i) measurement were described previously (24). In brief, the coverslip with attached islets was incubated with 15 μM Fura-2 acetoxymethylester (Molecular Probes, Eugene, Oreg.) in Krebs-Ringer bicarbonate buffer with 5 mM glucose for 35 min at 37° C. Islets were then perifused with Krebs-Ringer bicarbonate buffer with 0.25% bovine serum albumin at 37° C. at a flow rate of 2 mL/min, while various agents were applied. [Ca2+]i was measured with a dual wavelength fluorescence microscope as previously described. The effect of exendin-(9-39) on the characteristically elevated intracellular calcium concentration of SUR-1^-/- islets was studied. […] As previously reported, amino acids caused a transient further rise in intracellular calcium.

wild-type littermates = assay: Oral glucose tolerance test in wild-type littermates; assay type: in vivo, mouse; settings: wild-type littermates during treatment
Method: as §1, with “Mo.).” for “Mo.). To determine the mechanism of action for the effect of exendin-(9-39) on fasting blood glucose levels insulin sensitivity was assessed by an insulin tolerance test.”

[11] = fasting HI subject, i.v. ascending doses
[12] = among the treatment groups, during treatment

exendin-(9-39)
Insulin release in response to amino acid ramp stimulation (SUR-1−/− islets [1]; 100 nM exendin-(9-39), amino acid mixture 0-12 mM): blocked
Insulin response to KCl (SUR-1−/− islets [1]; presence vs absence of exendin-(9-39)): similar
Peripheral insulin sensitivity (insulin tolerance test) [2]: did not impact; also recorded: did not influence
cAMP Content (SUR-1−/− islets [3]; 100 nM exendin-(9-39) with 4 mM amino acid mixture (AAM)): 20.9±4.4 pmol/100 islets
cAMP Content (SUR-1−/− islets [3]; 100 nM exendin-(9-39) with 4 mM amino acid mixture (AAM), listed as Exendin-(9-39)): 52.5 ± 9.4 ^c pmol/100 islets
cAMP Content (SUR-1−/− islets [3]; basal, 100 nM exendin-(9-39), no exogenous GLP-1, baseline 40.1±4.2): 20.5±2.3 pmol/100 islets
cAMP Content (SUR-1−/− islets [3]; basal, 100 nM exendin-(9-39), no exogenous GLP-1, baseline 40.1±4.2, listed as Exendin-(9-39)): 20.5 ± 2.3 ^a pmol/100 islets
Glucose tolerance (oral, 2 g/kg) (SUR-1−/− mice [4]; SUR-1−/− mice during treatment): did not significantly impair; also recorded: did not influence
Return to baseline blood glucose levels after oral glucose (SUR-1−/− mice [4]; SUR-1−/− mice, 120 minute time point): minor delay
Insulin Secretion (SUR-1−/− islets [5]; 100 nM exendin-(9-39) with 4 mM AAM, AAM alone 389±17): 219±14 ng/100 islets/30 min
Insulin Secretion (SUR-1−/− islets [5]; 100 nM exendin-(9-39) with 4 mM AAM, AAM alone 389±17, listed as Exendin-(9-39)): 219 ± 14 ng/100 islets/30 min
Insulin Secretion (SUR-1−/− islets [5]; baseline, 100 nM exendin-(9-39), baseline without 221±22): 126±12 ng/100 islets/30 min
Insulin Secretion (SUR-1−/− islets [5]; baseline, 100 nM exendin-(9-39), baseline without 221±22, listed as Exendin-(9-39)): 126 ± 12 ^a ng/100 islets/30 min
Fasting blood glucose levels ([6]; another 2 human subjects): elevation
Blood glucose levels during infusion ([6]; fasting HI subject, i.v. 100, 300, 500 pmol/kg/min each 120 min, saline infusion dropped below 60): above 80 mg/dL
Fasting hypoglycemia [6, 11]: prevented
Plasma insulin [6, 11]: suppressed
Fasting blood glucose levels (SUR-1−/− mice [7]): 82.2 ± 6.3 mg/dL
Fasting blood glucose levels vs vehicle-treated wild type controls [8]: not different
Insulin/glucose ratio (SUR-1−/− mice [9]; SUR-1−/− mice, exendin-(9-39) treatment vs WT): normalized
Fasting glucagon levels (SUR-1−/− mice [9]; [12]): not different
Fasting insulin levels (SUR-1−/− mice [9]; [12]): not different
Basal intracellular calcium (SUR-1−/− islets [10]): did not impact
Amino acid-stimulated rise in intracellular calcium (SUR-1−/− islets [10]; amino acids 4 mM): no effect
Basal intracellular calcium (SUR-1−/− islets [10]; listed as Exendin-(9-39)): did not affect
Glucose tolerance (oral, 2 g/kg) (wild-type littermates): no effect
